Source: ChEMBL document CHEMBL1137293, “Discovery of oxadiazoyl tertiary carbinamine inhibitors of beta-secretase (BACE-1)” (J Med Chem, 2006)

Target: Beta-secretase 1 (Homo sapiens, UniProt P56817)
Experiment: Inhibition of BACE1

Beta-secretase 1, sequence (P56817 whole entry): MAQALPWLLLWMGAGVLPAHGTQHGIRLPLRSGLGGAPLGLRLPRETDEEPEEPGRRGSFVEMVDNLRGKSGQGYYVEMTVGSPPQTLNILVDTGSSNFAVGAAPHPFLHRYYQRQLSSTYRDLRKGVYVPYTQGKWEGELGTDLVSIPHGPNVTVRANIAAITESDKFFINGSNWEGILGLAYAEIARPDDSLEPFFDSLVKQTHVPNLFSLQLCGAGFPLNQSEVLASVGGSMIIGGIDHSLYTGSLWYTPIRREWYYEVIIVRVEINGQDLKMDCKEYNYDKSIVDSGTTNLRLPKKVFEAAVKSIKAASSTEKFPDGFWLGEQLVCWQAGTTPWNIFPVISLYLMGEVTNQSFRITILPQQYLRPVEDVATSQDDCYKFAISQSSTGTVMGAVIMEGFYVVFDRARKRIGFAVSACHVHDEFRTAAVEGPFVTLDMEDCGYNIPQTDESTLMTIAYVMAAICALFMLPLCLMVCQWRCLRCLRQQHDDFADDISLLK

Q: `C[C@@H](NC(=O)c1cc(C2=NC(CO)(Cc3ccccc3)CO2)cc(N(C)S(C)(=O)=O)c1)c1ccc(F)cc1` (stereo not given in full) was tested. Which IC50 did it give?
A: Its IC50 is 12.5 µM.

Q: For `C[C@@H](NC(=O)c1cc(COC(=O)[C@](C)(N)Cc2ccccc2)cc(N(C)S(C)(=O)=O)c1)c1ccc(F)cc1`, which IC50 is on record?
A: The IC50 was 0.027 µM.

Q: `C[C@@H](NC(=O)c1cc(C(=O)NC(CO)(CO)Cc2ccccc2)cc(N(C)S(C)(=O)=O)c1)c1ccc(F)cc1` was tested. Which IC50 did it give?
A: Its IC50 is 2.7 µM.

Q: With `C[C@@H](NC(=O)c1cc(COC[C@](C)(N)Cc2ccccc2)cc(N(C)S(C)(=O)=O)c1)c1ccc(F)cc1` as the compound, how does the IC50 read?
A: Its IC50 is 0.43 µM.

Q: `C[C@@H](NC(=O)c1cc(COC[C@@](N)(CO)Cc2ccccc2)cc(N(C)S(C)(=O)=O)c1)c1ccc(F)cc1` was tested. Which IC50 did it give?
A: Its IC50 is 1.37 µM.
